This note sets out measurements from patent US7192939B2, “Pestalotiopsis microsporia isolates and compounds derived therefrom” (Montana State University, priority 2002, dated 2007).

A short description of series [1]: Total oxyradical scavenging capacity (TOSC) assay. Format: biochemical. The following applies: for IC50: TOSC assay, ABAP initiator, KMBA, 37° C., ethylene by GC, read-out: solution concentration required to reduce the effects of the free radical initiator by 50%. An excerpt:
The similarity of pestacin to isopestacin, described herein and in Strobel, G. A.; Ford, E.; Worapong, J.; Harper, J. K.; Arif, A. M.; Grant, D. M.; Fung, P.; Chau, R. M. W. Phytochem. […] Pestacin was thus analyzed using the total oxyradical scavenging capacity (TOSC) assay. This analysis assesses a compounds ability to inhibit a free radical initiator's oxidation of α-Keto-γ-methiolbutyric acid to release ethylene gas. Compounds with antioxidant properties thus decrease the production of ethylene gas, as measured gas chromatographically. Pestacin required a 1.7±0.1 mM solution to reduce the effects of the free radical initiator by 50%. In contrast, the water-soluble vitamin E derivative, troxol, required an 18.8±0.9 mM solution to exert the same effect. Pestacin, therefor, appears to be an extremely effective antioxidant as measured by this assay. A mechanism for antioxidant activity may also be proposed based on the structure of pestacin.
Antioxidant activity of (1) was assessed by dissolving 8.7 mg of (1) in 200 μL of DMSO then diluting the solution 1:10, 1:100, and 1:1000 in DMSO. A 10 μL volume of each sample was then combined in a 10 mL vial with 100 μL of 100 mM potassium phosphate buffer, 100 μL of 2 mM α-keto-γ-methiolbuthric acid (KMBA), and 690 μL of H2O. Control samples were also prepared containing 100 μL of 100 mM potassium phosphate buffer, 100 μL of 2 mM KMBA, and 700 μL of H2O. The sealed samples were then incubated at 37° C. for 5 minutes followed by injection of 100 μL of the free radical initiator, 2,2′-azobis(2-methylpropionamidine) (ABAP). Peroxy radicals, generated by thermal homolysis of ABAP at 37° C., then oxidized KMBA to produce ethylene gas. Ethylene production was monitored by gas chromatography of 1 mL samples removed every 12 minutes over a 96-minute period. Chromatographic analysis was performed on a Hewlett-Packard 5890A gas chromatograph equipped with a Supelco 6-foot Porpak Q packed column, a flame ionization detector, and employing helium as a carrier gas (30 mL/min). […]

Series [2] has as its system Pythium ultimum. Kind of series: Antimycotic activity, minimum inhibitory concentration in potato dextrose broth. Format: cell-based. The protocol:
(§1) The minimum inhibitory concentration of (1) required to give a 100% reduction of growth of a test fungus over a course of two days was determined by dissolving (1) in 1 ml of potato dextrose broth (PDB). An agar plug, 1 cm in dia, containing the test fungus was then added to the broth and the organisms incubated at 23° C. for 48 hr. At that time the plate containing the fungi was examined visually for growth and the concentration of compound reducing growth by 100% was recorded. Fungi tested were each plant pathogenic and included an oomycete—Pythium ultimum, an ascomycete—Sclerotinia sclerotiorum, and a basidiomycete—Rhizoctonia solani.
Isopestacin (1) is antimycotic, with total inhibition of Pythium ultimum, a plant pathogenic oomycete, at 40 μg/ml at 48 hr.
Pestacin was also analyzed for antifungal activity using previously described methodology. […] This level of activity is slightly greater than that previously observed for isopestacin.

A short description of series [3]: ESR hydroxyl free radical scavenging (Fenton reaction, DEPMPO spin trap). Format: biochemical. The following applies: 0.18 mM OH• chemically generated (Fenton), read-out: concentration required to reduce hydroxyl free radical by 50%. The protocol:
EPR techniques used in this work are primarily those reported by Sheu et al., 2000 and Zhu and Fung, 2000. All EPR spectra were recorded on a Bruker model ESP 300E spectrometer, X-band operating at a microwave frequency 9.787 gHz, a microwave power of 10 mW, a modulation frequency of 100.0 kHz, and a modulation amplitude of 0.367 mT. The magnetic field range was 334±80 mT, a time constant of 40.96 ms, a receiver gain of 2×10^4 and a magnetic fieldsweep rate of 0.48 mT/s. The magnetic field spacings are similar to those reported by Zhang et al (2000). The superoxide O2 ^−• was generated by the action of hypoxanthine or xanthine on water and oxygen through the catalysis of xanthine oxidase. The hydroxyl free radical OH^• is generated by the well-known Fenton reaction: Fe^2++H2O2=Fe^3++OH^−+OH^•, where 0.09 mM ferrous sulfate and 0.18 mM H2O2 were used. All enzymes and their respective substrates were purchased from Sigma Chemical Co., while other reagents were acquired from Calbiochem, and Life-Tech. […] Test compounds were added to the tube and their effects on signal reduction (antioxidant activity) were monitored. […]
Testing confirms that Isopestacin (1) indeed has antioxidant activity as determined by ESR measurements described in the experimental section. […] Simultaneously, EPR spectra are recorded of the free electrons associated with the free radicals. […]

Series [4] can be described thus: Lipid free radical reduction. Format: biochemical. An excerpt:
Testing confirms that Isopestacin (1) indeed has antioxidant activity as determined by ESR measurements described in the experimental section. The compound is able to scavenge superoxide O2^−• and OH^• radicals in solution. The superoxide was generated in our experimental set-up by the action of hypoxanthine on water and oxygen via the catalysis of xanthine oxidase. On the other hand OH^• was generated via the Fenton reaction of hydrogen peroxide on ferrous iron. Simultaneously, EPR spectra are recorded of the free electrons associated with the free radicals. […] It should be noted that since superoxide was generated via the xanthine oxidase reaction it was no possible to accurately calculate the exact molar concentration of O2^−• in these reactions. However, (1) is extremely capable of scavenging the hydroxyl free radical (OH^•) with 0.22 mM required to reduce this free radical (0.18 mM OH^•—chemically generated) by 50%. This is an important biological and chemical property of (1) since OH^• is believed to be more detrimental to cell death directly than O2^−•. On the other hand, (1) has no effect in reducing the lipid free radical LOO^−•.

Series [5] can be described thus: ESR superoxide scavenging (hypoxanthine/xanthine oxidase, EMPO spin trap). Format: biochemical. As to conditions: superoxide generated by hypoxanthine/xanthine oxidase, read-out: concentration needed to reduce the free radical O2−• (ESR signal) by 50%.
Experimental: All EPR spectra were recorded on a Bruker model ESP 300E spectrometer, X-band operating at a microwave frequency 9.787 gHz, a microwave power of 10 mW, a modulation frequency of 100.0 kHz, and a modulation amplitude of 0.367 mT. The magnetic field range was 334±80 mT, a time constant of 40.96 ms, a receiver gain of 2×10^4 and a magnetic fieldsweep rate of 0.48 mT/s. […] The superoxide O2 ^−• was generated by the action of hypoxanthine or xanthine on water and oxygen through the catalysis of xanthine oxidase. […] All enzymes and their respective substrates were purchased from Sigma Chemical Co., while other reagents were acquired from Calbiochem, and Life-Tech. The reaction mixture was transferred to an EPR flat tube for signal detection. Also placed in the tube was a spin trap compound-2-ethoxycarbonyl-2-methyl-3,4-dihydro-2H-pyrrole-1-oxide (EMPO) to trap the superoxide. […] Test compounds were added to the tube and their effects on signal reduction (antioxidant activity) were monitored. Because of the water insolubility of (1) it was necessary to dissolve it first into a small amount of methanol and then add it to the reaction mixture. […]
The superoxide was generated in our experimental set-up by the action of hypoxanthine on water and oxygen via the catalysis of xanthine oxidase. […] Simultaneously, EPR spectra are recorded of the free electrons associated with the free radicals. […]
The nature of series [6]: Solubility in water. Format: physicochemical.
Series [7] deals with Sclerotinia sclerotiorum. The experiment in a line: Antimycotic activity, minimum inhibitory concentration in potato dextrose broth. Format: cell-based. The protocol: as §1
For series [8], the system named is Rhizoctonia solani. The description is as above. Format: cell-based. The protocol:
as §1

In brackets after ≈: the same amount, converted by molar mass.

As for `Cc1cc(O)c2c(c1)COC2c1c(O)cccc1O` (racemic) [Pestacin], the IC50 in series [1] was found to be 1700 ± 100 µM. Moreover, the “antioxidant activity relative to troxol” value in series [1] (pestacin vs vitamin E derivative troxol) is given as 11 times. Also, in series [2] (Globisporangium ultimum, previously described methodology, read-out: minimum inhibitory concentration against Pythium ultimum), the MIC was approximately 10 mg/L (≈ 38.7 µM).
For `Cc1cc(O)c2c(c1)C(c1c(O)cccc1O)OC2=O` (racemic) [Isopestacin, 1-oxo-3-(9,13-dihydroxybenzene)-5-methyl-7-hydroxy-1,3-dihydrobenzofuranone], the IC50 in series [3] was 220 µM; in series [5], not below 185 µM. Besides, the “effect in reducing the lipid free radical LOO−•” value in series [4] is given as “no effect”. For the same molecule, in series [2] (at 48 hr, 100% reduction of growth), the “concentration giving total inhibition of Pythium ultimum” value was determined as 40 µg/mL. The solubility in water result in series [6] is “very low solubility in water”. In addition, the “inhibitory effect on Sclerotinia sclerotiorum” value in series [7] is recorded as “no inhibitory effect”. Also, the “inhibitory effect on Rhizoctonia solani” value in series [8] is “no inhibitory effect”.
As for `Cc1c(C)c2c(c(C)c1O)CCC(C)(C(=O)O)O2` (centres unmarked) [troxol, reference compound], the IC50 in series [1] is 18800 ± 900 µM.
